Test: xn = mol fraction of the nth substance listed
Conditions: 101.33 kPa, Liquid

C[S+](C)[O-] [dimethyl sulfoxide] + Cc1ccccc1
Conditions	mass density [kg/m3]
293.15 K, x2 = 0.0689	1077.87
293.15 K, x2 = 0.1505	1053.27
293.15 K, x2 = 0.2269	1031.56
293.15 K, x2 = 0.3036	1010.99
293.15 K, x2 = 0.3758	992.64
293.15 K, x2 = 0.4568	973.24
293.15 K, x2 = 0.5177	959.33
293.15 K, x2 = 0.5769	946.41
293.15 K, x2 = 0.6342	934.37
293.15 K, x2 = 0.6885	923.31
293.15 K, x2 = 0.7512	911.04
293.15 K, x2 = 0.8181	898.38
293.15 K, x2 = 0.8856	886.05
293.15 K, x2 = 0.9553	873.71
303.15 K, x2 = 0.0652	1069.85
303.15 K, x2 = 0.1295	1050.38
303.15 K, x2 = 0.1806	1035.51
303.15 K, x2 = 0.2563	1014.57
303.15 K, x2 = 0.3098	1000.5
303.15 K, x2 = 0.3845	981.74
303.15 K, x2 = 0.4456	967.18
303.15 K, x2 = 0.5169	950.98
303.15 K, x2 = 0.5813	937.04
303.15 K, x2 = 0.6645	919.88
303.15 K, x2 = 0.7499	903.18
303.15 K, x2 = 0.8114	891.64
303.15 K, x2 = 0.8802	879.15
303.15 K, x2 = 0.9532	866.39
313.15 K, x2 = 0.0661	1059.41
313.15 K, x2 = 0.1202	1043.16
313.15 K, x2 = 0.1891	1023.36
313.15 K, x2 = 0.2403	1009.32
313.15 K, x2 = 0.2945	995.06
313.15 K, x2 = 0.3615	978.24
313.15 K, x2 = 0.4369	960.28
313.15 K, x2 = 0.5156	942.59
313.15 K, x2 = 0.5813	928.56
313.15 K, x2 = 0.6558	913.41
313.15 K, x2 = 0.7267	899.63
313.15 K, x2 = 0.7956	886.78
313.15 K, x2 = 0.8821	871.32
313.15 K, x2 = 0.9448	860.52
323.15 K, x2 = 0.0884	1042.41
323.15 K, x2 = 0.1236	1032.08
323.15 K, x2 = 0.1869	1014.1
323.15 K, x2 = 0.2536	996.08
323.15 K, x2 = 0.3285	976.94
323.15 K, x2 = 0.3996	959.75
323.15 K, x2 = 0.4501	948.11
323.15 K, x2 = 0.4969	937.7
323.15 K, x2 = 0.5563	925
323.15 K, x2 = 0.616	912.74
323.15 K, x2 = 0.6725	901.61
323.15 K, x2 = 0.7562	885.79
323.15 K, x2 = 0.8532	868.42
323.15 K, x2 = 0.9458	852.63
333.15 K, x2 = 0.0598	1040.93
333.15 K, x2 = 0.1436	1016.4
333.15 K, x2 = 0.2258	993.84
333.15 K, x2 = 0.2931	976.44
333.15 K, x2 = 0.3652	958.78
333.15 K, x2 = 0.4112	948.06
333.15 K, x2 = 0.4859	931.36
333.15 K, x2 = 0.5301	921.94
333.15 K, x2 = 0.5965	908.31
333.15 K, x2 = 0.6789	892.24
333.15 K, x2 = 0.7215	884.23
333.15 K, x2 = 0.7899	871.86
333.15 K, x2 = 0.8512	861.15
333.15 K, x2 = 0.9503	844.53
343.15 K, x2 = 0.0599	1030.68
343.15 K, x2 = 0.1102	1015.93
343.15 K, x2 = 0.1798	996.46
343.15 K, x2 = 0.2549	976.61
343.15 K, x2 = 0.3169	961.13
343.15 K, x2 = 0.3858	944.75
343.15 K, x2 = 0.4405	932.38
343.15 K, x2 = 0.5258	914.08
343.15 K, x2 = 0.5936	900.34
343.15 K, x2 = 0.6678	886.01
343.15 K, x2 = 0.7166	876.96
343.15 K, x2 = 0.7925	863.42
343.15 K, x2 = 0.8792	848.65
343.15 K, x2 = 0.9552	836.24
353.15 K, x2 = 0.0801	1014.55
353.15 K, x2 = 0.1526	994.06
353.15 K, x2 = 0.2215	975.63
353.15 K, x2 = 0.2869	959.04
353.15 K, x2 = 0.3568	942.26
353.15 K, x2 = 0.4205	927.79
353.15 K, x2 = 0.4956	911.6
353.15 K, x2 = 0.5723	895.96
353.15 K, x2 = 0.6321	884.4
353.15 K, x2 = 0.7058	870.71
353.15 K, x2 = 0.768	859.69
353.15 K, x2 = 0.8363	848.04
353.15 K, x2 = 0.8913	838.96
353.15 K, x2 = 0.9524	829.17

C[S+](C)[O-] [dimethyl sulfoxide] + c1ccccc1
Conditions	mass density [kg/m3]
293.15 K, x2 = 0.0589	1084.47
293.15 K, x2 = 0.1255	1067.5
293.15 K, x2 = 0.1852	1052.58
293.15 K, x2 = 0.2561	1035.37
293.15 K, x2 = 0.2934	1026.52
293.15 K, x2 = 0.3345	1016.91
293.15 K, x2 = 0.3782	1006.87
293.15 K, x2 = 0.4312	994.89
293.15 K, x2 = 0.4757	985.02
293.15 K, x2 = 0.5963	958.97
293.15 K, x2 = 0.6875	939.81
293.15 K, x2 = 0.7369	929.61
293.15 K, x2 = 0.8637	903.71
293.15 K, x2 = 0.9562	885.02
303.15 K, x2 = 0.0596	1075.16
303.15 K, x2 = 0.1345	1056.18
303.15 K, x2 = 0.194	1041.49
303.15 K, x2 = 0.2473	1028.63
303.15 K, x2 = 0.2893	1018.74
303.15 K, x2 = 0.3465	1005.44
303.15 K, x2 = 0.4213	988.61
303.15 K, x2 = 0.4835	974.94
303.15 K, x2 = 0.5431	962.12
303.15 K, x2 = 0.5968	950.76
303.15 K, x2 = 0.6763	934.26
303.15 K, x2 = 0.7781	913.49
303.15 K, x2 = 0.8511	898.8
303.15 K, x2 = 0.9542	878.27
313.15 K, x2 = 0.059	1064.91
313.15 K, x2 = 0.1267	1047.76
313.15 K, x2 = 0.1873	1032.78
313.15 K, x2 = 0.2676	1013.53
313.15 K, x2 = 0.2933	1007.51
313.15 K, x2 = 0.3378	997.22
313.15 K, x2 = 0.4321	976.04
313.15 K, x2 = 0.4752	966.67
313.15 K, x2 = 0.5514	950.39
313.15 K, x2 = 0.6011	939.97
313.15 K, x2 = 0.6837	923
313.15 K, x2 = 0.7653	906.53
313.15 K, x2 = 0.8681	886.1
313.15 K, x2 = 0.9499	870
323.15 K, x2 = 0.0602	1054.55
323.15 K, x2 = 0.1257	1038.36
323.15 K, x2 = 0.1833	1024.43
323.15 K, x2 = 0.2512	1008.48
323.15 K, x2 = 0.3294	990.67
323.15 K, x2 = 0.3931	976.6
323.15 K, x2 = 0.4615	961.88
323.15 K, x2 = 0.5232	948.95
323.15 K, x2 = 0.5972	933.77
323.15 K, x2 = 0.6502	923.09
323.15 K, x2 = 0.7149	910.25
323.15 K, x2 = 0.7896	895.64
323.15 K, x2 = 0.8788	878.39
323.15 K, x2 = 0.9556	863.66
333.15 K, x2 = 0.0593	1044.75
333.15 K, x2 = 0.1279	1028.18
333.15 K, x2 = 0.1801	1015.83
333.15 K, x2 = 0.2566	998.31
333.15 K, x2 = 0.3263	982.84
333.15 K, x2 = 0.3862	969.9
333.15 K, x2 = 0.4523	955.99
333.15 K, x2 = 0.5213	941.87
333.15 K, x2 = 0.5869	928.72
333.15 K, x2 = 0.6532	915.7
333.15 K, x2 = 0.7256	901.71
333.15 K, x2 = 0.7959	888.33
333.15 K, x2 = 0.8864	871.29
333.15 K, x2 = 0.9116	866.58
343.15 K, x2 = 0.0593	1034.67
343.15 K, x2 = 0.1356	1016.68
343.15 K, x2 = 0.2182	997.86
343.15 K, x2 = 0.2636	987.78
343.15 K, x2 = 0.3296	973.51
343.15 K, x2 = 0.3938	960.01
343.15 K, x2 = 0.4686	944.74
343.15 K, x2 = 0.5213	934.26
343.15 K, x2 = 0.5769	923.38
343.15 K, x2 = 0.6623	907.03
343.15 K, x2 = 0.7385	892.7
343.15 K, x2 = 0.7801	884.99
343.15 K, x2 = 0.8569	870.86
343.15 K, x2 = 0.9503	853.81
353.15 K, x2 = 0.058	1024.84
353.15 K, x2 = 0.1585	1001.73
353.15 K, x2 = 0.2335	985.09
353.15 K, x2 = 0.3065	969.42
353.15 K, x2 = 0.3765	954.93
353.15 K, x2 = 0.4187	946.35
353.15 K, x2 = 0.4682	936.49
353.15 K, x2 = 0.5242	925.57
353.15 K, x2 = 0.5912	912.8
353.15 K, x2 = 0.6404	903.56
353.15 K, x2 = 0.7556	882.4
353.15 K, x2 = 0.8024	873.93
353.15 K, x2 = 0.8701	861.79
353.15 K, x2 = 0.9284	851.4

Source: the NIST ThermoML archive (doi:10.1016/j.jct.2004.07.024)
